This is an account of results in ChEMBL document CHEMBL1201862, “PubChem BioAssay data set” (2004).

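96-well plates; 48 h exposure; 5 concentrations. Endpoints by linear interpolation between flanking doses. Not reached: highest tested concentration assigned. GI50 is the concentration that inhibits growth by half.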 Activity calls are given as the source filed them. No stated cut-off is given here; in the data, active = GI50 up to about 1.1 µM and inactive = higher.

Test in all cases: NCI anticancer screen, dose series, 48 h
For test [1], the system named is RXF 631.
The test system of test [2] is XF498.
For test [3], the system named is M19-MEL.
Test [4] has as its system DMS-273.
Test [5] deals with KM-20L2.
Test [6] concerns SNB-78.
The test system of test [7] is HOP-18.
Test [8] has as its system DMS-114.
Test [9] concerns LXFL 529.

`CS(=O)(=O)ON1C(=O)c2ccc(N)cc2C1=O`: the GI50 is > 100 µM (inactive) in test [1]; > 79.1 µM (inactive) in test [2]; > 59.8 µM (inactive) in [3]; > 100 µM (inactive) in test [4]; > 100 µM (inactive) in [5]; > 100 µM (inactive) in test [6]. Besides, the GI50 was > 100 µM (inactive) in test [7], > 74.5 µM (inactive) in test [8] and > 78.5 µM (inactive) in test [9].
For `O=C1C=CC2(C=C1)CCNC1=C2C(=O)c2ccccc2C1=O`, the GI50 in test [1] was > 100 µM (inactive); in [2] it was > 100 µM (inactive); in test [3], 32.5 µM (inactive); in test [4], > 100 µM (inactive); in test [5], > 100 µM (inactive); in test [8], > 100 µM (inactive). In [9], the GI50 was > 100 µM (inactive).
For the molecule `c1cc(-c2cn3ccsc3n2)ccn1`, the GI50 in test [1] was > 100 µM (inactive); in [2], > 100 µM (inactive); in [3], > 60.5 µM (inactive); in test [4], 32.7 µM (inactive); in [5], > 31.6 µM (inactive); in test [6], > 100 µM (inactive). Also, the values for the GI50 in test [7], in test [8] and in test [9] were > 100 µM (inactive), > 66.5 µM (inactive) and > 100 µM (inactive), respectively.
Regarding `N#CC(NNC(=O)c1ccccc1O)c1cccc(O)c1` (stereo not given), the GI50 in test [4] is 2.32 µM (inactive); in test [5] it was 33.7 µM (inactive); in [6], 4.89 µM (inactive); in [7], 35.3 µM (inactive); in [8], 3.61 µM (inactive); in test [9], 4.31 µM (inactive).
On to `C=C(OC1C(C)=C2C(C1OC(=O)CCCCCCC)C(C)(OC(C)=O)CC(OC(=O)CCC)C1(O)C2OC(=O)C1(C)O)/C(C)=C/C` (stereo not given), for which the GI50 in [2] was 0.348 µM (active); in [3] it was 0.0125 µM (active); in test [4], 0.0125 µM (active); in [5] it was 0.0314 µM (active); in test [6] it was 0.015 µM (active); in [7], 0.0125 µM (active). The GI50 in [8] is 0.0125 µM (active).
Turning to `O=C(O)/C=C\C(=O)Nc1ccc(S(=O)(=O)c2ccc(NC(=O)/C=C\C(=O)O)cc2)cc1`, the GI50 in test [2] is > 100 µM (inactive); in test [3], 45 µM (inactive); in test [5] it was > 100 µM (inactive); in test [6], > 100 µM (inactive); in test [8], > 100 µM (inactive); in test [9], > 100 µM (inactive).
On to `Cn1cc(NC(=O)c2cc(NC(=O)CCCCCCC(=O)Nc3cc(C(=O)Nc4cc(C(=O)NCCC(=N)N)n(C)c4)n(C)c3)cn2C)cc1C(=O)NCCC(=N)N`, for which the GI50 in [2] is 34.9 µM (inactive); in [3], 2.82 µM (inactive); in test [4], 3.82 µM (inactive); in [5] it was > 100 µM (inactive); in test [6], 24.2 µM (inactive); in [7], 15.5 µM (inactive). Moreover, the results for the GI50 in test [8] and in test [9] were 2.47 µM (inactive) and 5.92 µM (inactive), respectively.
For `COc1ccc(-c2cc(C(=O)Nc3ccc(C)c(C)c3)nc(NC#N)n2)cc1`, the GI50 in [2] was > 100 µM (inactive); in test [3], > 100 µM (inactive); in test [4], > 100 µM (inactive); in test [5], > 100 µM (inactive); in test [6] it was > 100 µM (inactive); in test [7], 0.562 µM (active). Further, the GI50 in test [8] and in test [9] was > 100 µM (inactive) throughout.
With `CN(CCO)c1nc(=O)c2c(n1C1OC(CO)C(O)C(O)C1O)CCCC2` (stereo not given), the GI50 in test [2], in test [3], in [4], in test [5], in [6] and in test [7] was > 100 µM (inactive) throughout. The GI50 in [8] and in [9] was > 100 µM (inactive) throughout.
Turning to `O=C1c2ccccc2C(=O)c2c(/C=C\N3CCCCC3)ccnc21`, the GI50 was 8.22 µM (inactive) in test [1]; 11.1 µM (inactive) in [2]; 0.237 µM (active) in [3]; 2.3 µM (inactive) in test [4]; 15.5 µM (inactive) in test [5]; 18.7 µM (inactive) in test [6]. For the same molecule, the GI50 was 1.25 µM (inactive) in [7], 0.813 µM (active) in test [8] and 0.377 µM (active) in test [9].
With `N#Cc1cccc(-n2[nH]c(=O)ccc2=O)c1`, the GI50 in [3], in [4], in test [5], in [8] and in test [9] was > 100 µM (inactive) each time.
Regarding `N=C(N)C1=C(O)NC(=O)N(C2CCCCC2)C1`, the GI50 in [3], in [4], in [5], in [6], in test [7] and in test [8] was > 100 µM (inactive) each time. Also, the GI50 in test [9] is > 100 µM (inactive).
In the case of `COc1cc([C@@H]2c3cc4c(cc3[C@@H](NC(=O)c3ccccc3)C3COC(=O)[C@@H]32)OCO4)cc(OC)c1O` (stereo not given in full), the GI50 in [3] is 4.82 µM (inactive); in [4] it was 1.52 µM (inactive); in test [5] it was 2.71 µM (inactive); in test [6], 41.2 µM (inactive); in [7] it was > 100 µM (inactive); in [8], 2.61 µM (inactive). Besides, the GI50 in [9] was 12.1 µM (inactive).
Turning to `Cc1ccc(C(=O)O)cc1NC(=O)c1cc(/C=C/c2ccccc2)[nH]c(=S)n1`, the GI50 was > 100 µM (inactive) in test [1]; > 100 µM (inactive) in test [2]; > 57.4 µM (inactive) in [4]; > 100 µM (inactive) in [5]; > 100 µM (inactive) in test [6]; > 100 µM (inactive) in [7]. Also, the GI50 in test [8] was > 57 µM (inactive); in test [9], > 84.5 µM (inactive).
On to `COc1cc2nncc(Sc3cnnc4ccccc34)c2cc1OC`, for which the GI50 in [1] is 23 µM (inactive); in test [3], 30.7 µM (inactive); in [4], 29.7 µM (inactive); in [5], 25.6 µM (inactive); in test [6], 6 µM (inactive); in test [7], 16.5 µM (inactive). The GI50 is 9.95 µM (inactive) in test [8] and 9.79 µM (inactive) in [9].
Consider `O=C(N/C=C/C=C/Sc1ccccc1)OCc1ccccc1`, for which the GI50 in test [1] is 19.1 µM (inactive); in test [2], 20.4 µM (inactive); in [3], 17.2 µM (inactive); in test [4], 16.6 µM (inactive); in [5], 17.2 µM (inactive); in test [6] it was 40.2 µM (inactive). In addition, the GI50 is 28.1 µM (inactive) in test [7], 16.6 µM (inactive) in test [8] and 17.1 µM (inactive) in test [9].
On to `O=[N+]([O-])c1ccc(-c2noc(-c3ccccc3)c2C2=NCCN2)cc1`, for which the GI50 in [1] is 60.3 µM (inactive); in test [2], 70.6 µM (inactive); in test [3], > 100 µM (inactive); in [5], 40.5 µM (inactive); in test [6], 39.2 µM (inactive); in test [7], 21.1 µM (inactive). Further, the GI50 in test [9] was > 100 µM (inactive).
For the molecule `C#CCn1c(=O)c2cccnc2n(CC#C)c1=O`, the GI50 in test [2], in test [4], in test [6], in test [7] and in test [9] was > 100 µM (inactive) throughout.
Turning to `O=Cc1c[nH]c2c(=O)[nH]cnc12`, the GI50 in test [3], in test [6], in test [7], in [8] and in test [9] was > 100 µM (inactive) each time.
Take `CCN(CC)CC1c2ccccc2C(CNc2ccccc2)N1C` (stereo not given): the GI50 in [1], in test [2], in [3], in [4], in test [5] and in test [6] was > 100 µM (inactive) each time. In addition, the GI50 in test [8] and in [9] was > 100 µM (inactive) throughout.
As to `CCN(CC)CCOC(c1ccccc1)c1ccccc1.CCOC(=O)Nc1ccc(S(=O)(=O)NCCCl)cc1.CCOC(=O)Nc1ccc(S(=O)(=O)NCCCl)cc1.Nc1ccc(C(=O)O)c(O)c1`, the GI50 in test [1], in [3], in test [5], in [6], in test [7] and in test [8] was > 100 µM (inactive) each time. For the same molecule, in test [9], the GI50 is > 100 µM (inactive).
In the case of `O.O=C([O-])c1ccccc1Nc1ccccc1C(=O)[O-].[Zn+2]`, the GI50 is 25.1 µM (inactive) in test [2]; 17.3 µM (inactive) in [3]; 15.7 µM (inactive) in [4]; 94 µM (inactive) in test [5]; 37.2 µM (inactive) in test [6]; > 52.6 µM (inactive) in [7]. Besides, the values for the GI50 in [8] and in test [9] were 17.5 µM (inactive) and 22.1 µM (inactive), respectively.
For `NC(=O)c1nnn(Cc2cc(Cl)c(C(=O)c3ccc(Cl)cc3)c(Cl)c2)c1N` [CARBOXYAMIDOTRIAZOLE], the GI50 in [1] is 11.7 µM (inactive); in test [2], > 9.1 µM (inactive); in [3] it was > 9.1 µM (inactive); in [4] it was > 9.1 µM (inactive); in test [5], > 9.1 µM (inactive); in test [6] it was > 9.1 µM (inactive). Further, the results for the GI50 in [7], in test [8] and in test [9] were > 9.1 µM (inactive), 6.1 µM (inactive) and > 9.1 µM (inactive), respectively.
